According to patent US9642897B2, “Treatment of bone diseases” (THE UNIVERSITY OF SYDNEY, priority 2011, dated 2017):
“Also recorded” adds a separate entry of the source.

How the values were obtained:
RUNX2, OCN and OPN = experiment: Osteogenic gene expression (RUNX2, OCN, OPN) in differentiating MSC; type: cell-based, human; settings: for relative gene expression of RUNX2, OCN and OPN: differentiating MSC
Method: (§1) Subsequently, the effect of chemical inhibition/stimulation of the intermediate and end products of kynurenine activation on osteogenic differentiating MSC was then characterised.
These compounds were added to the MSC media on day one of differentiation. […] Media was changed every three days. […]

[1] = test system: mesenchymal stem cells (MSC); experiment: Mineralization (alizarin red staining) of osteogenic differentiating MSC; type: cell-based, human
Method: (§2) Human mesenchymal stem cells (MSC) (BioWhittaker, Walkersville, Md., USA) were plated at a density of 5×10^5 cells per well in 150 cm^2 dishes containing MSC growth medium (GM) (BioWhittaker, Walkersville, Md., USA) with 10% fetal calf serum (FCS) and incubated at 37° C. After the cells reached 60% confluence, media was replaced with either GM or osteoblastogenesis induction media (OIM) (prepared with MSCGM, 10% FCS, […] dexamethasone, 10 mmol/L β glycerol phosphate and 50 μg/mL ascorbic acid) for 21 days. Media was changed every three days. Media obtained at the beginning of the 1st, 2nd and 3rd wk of differentiation as well as conditioned media were collected for measurement of IFNγ. Concentrations of IFNγ in the conditioned media were measured from both GM and OM treated cells using Human […] DuoSet ELISA Development Kit (R&D Systems, Minneapolis, Mich., USA). To compare between the osteogenic and the immune effect of IFNγ, Jurkat cells and human T lymphocytes were plated at a density of 5×10^5 cells per well in 150 cm^2 dishes containing RPMI media.
as §1
These compounds were added to the MSC media on day one of differentiation. Cells were treated for […]. Media was changed every three days. After three weeks of treatment, osteoblastogenesis and changes in osteogenic genes were quantified as described above.

[2] = test system: bone marrow stromal cells (BMSC) from IDO-1 KO and WT mice; experiment: Osteogenic differentiation of BMSC from IDO-1 KO and WT mice (alizarin red); type: cell-based; settings: vs vehicle
Method: One side tibiae from 9-month-old IDO-1^−/− and IDO-1^+/+ mice (n=6 per group) were flushed using a 21-gauge needle attached to a 10 ml syringe filled with Dulbecco's modified Eagle's medium (DME) (GIBCO BRL, Gaithersburg, Md., USA). The bone marrow cells were filtered through a cell strainer with a 70-micron nylon mesh (BD Bioscience, Bedford, Mass., USA) and plated in 10 cm^2 tissue culture dishes. The cells were incubated in growth medium at 37° C. with 5% humidified CO2 and isolated by their adherence to tissue culture plastic. Medium was aspirated and replaced with fresh medium every 2 to 3 days to remove non-adherent cells. The adherent MSC were grown to confluency for about 7 days and defined as MSC at passage 0, harvested with 0.25% trypsin and 1 mM EDTA for 5 min at 37° C., diluted 1:3 in growth medium, plated and grown to confluency for further expansion. After 2nd and 3rd passages, MSC were used for subsequent experiments.
To induce differentiation, a total of 10^4 cells were diluted in osteogenic medium and plated in 24 dishes per group in the presence or absence of either quinolinic or picolinic acid. Media was aspirated and replaced with fresh osteogenic medium every 3 days. At 21 days, medium was removed and cultures were fixed in 10% v/v formol/saline solution for 5 min. Cultures were stained with Alizarin Red, which was then extracted and quantified at 570 nm.

[3] = rats; cited from earlier work
IDO-1 gene expression [4] = experiment: IDO-1 gene expression in osteogenic differentiating MSC (cDNA array / real time PCR); type: cell-based, human; settings: for increase in IDO-1 expression: differentiating osteoblasts
Method: as §2
Cells were treated with either IFNγ (100 nM) or vehicle for two weeks. At week 2, total RNA was extracted from treated MSC, Jurkat T lymphocytes using an Easy-Kit mini prep (Qiagen, Valencia, Calif., USA). Generation of cDNA, fluorescent labeling, hybridization to the gene chip and data analysis were performed by the Genomics Laboratory at Ramacciotti Institute (Sydney, Australia). 12,000 human genes were examined and expressed sequences tags (ESTs) on the array Human Genome U95A (Affymetrix, Inc. Santa Clara, Calif., USA) and analyzed the results using the MicroDB™ Software (Affymetrix, Inc. Santa Clara, Calif., USA). Expression values of the differentiated and non-differentiated MSC and between MSC vs. Jurkat cells and T lymphocytes were compared using Student's t test. Genes with significant changes were then grouped depending on their known function. The biological function of each gene product was obtained from literature searches in medical databases. This experiment was repeated twice and significant changes in gene expression determined by the method of biological duplicates.
A cDNA gene array analysis was performed in MSC induced to differentiate into osteoblasts using osteogenic media for 7 days while being treated with an anabolic dose of IFNγ (100 nM) in vitro. A comparison of was made of cDNA data obtained from differentiating MSC, human primary T-lymphocytes and Jurkat cells either untreated or treated with IFNγ (FIG. 1). The aims of this approach were not only to characterise the osteogenic effect of IFNγ on osteogenic differentiating MSC, but also to compare the osteogenic vs. the immunogenic profile of IFNγ. […]

TPH-1 gene expression = TPH-1 gene expression in IFNγ-treated immune cells (Jurkat cells, T lymphocytes); type: cell-based, human; settings: immune cells treated with IFNγ
Method: as §2, with “To compare between the osteogenic and the immune effect of IFNγ, Jurkat cells and human T lymphocytes were plated at a density of 5×10^5 cells per well in 150 cm^2 dishes containing RPMI media.” left out
(§3) Cells were treated with either IFNγ (100 nM) or vehicle for two weeks. […] 12,000 human genes were examined and expressed sequences tags (ESTs) on the array Human Genome U95A (Affymetrix, Inc. Santa Clara, Calif., USA) and analyzed the results using the MicroDB™ Software (Affymetrix, Inc. Santa Clara, Calif., USA). […] This experiment was repeated twice and significant changes in gene expression determined by the method of biological duplicates. […]

IDO-1 gene expression [5] = experiment: IDO-1 gene expression in IFNγ-treated immune cells (Jurkat cells, T lymphocytes); type: cell-based, human; settings: immune cells treated with IFNγ
Method: as §2, with “To compare between the osteogenic and the immune effect of IFNγ, Jurkat cells and human T lymphocytes were plated at a density of 5×10^5 cells per well in 150 cm^2 dishes containing RPMI media.” left out
as §3

IDO-1 [6] = experiment: Kynurenine/tryptophan ratio by HPLC in differentiating MSC; type: cell-based, human; settings: MSC treated with IFNγ
serotonin = experiment: Serotonin concentrations in MSC supernatants (ELISA); type: cell-based, human; settings: IFNγ treated vs untreated cells
From the text: In addition, there was no difference in the serotonin concentrations (measured using ELISA) in the supernatants obtained from osteoblastogenesis induction media (OIM)- and IFNγ-treated vs. untreated cells. […] This effect is independent of serotonin concentration in the media.

IDO-1 [7] = experiment: Immunohistochemistry of IDO-1 in gut and bone of IFNγ-treated mice; type: in vivo, C57BL/6 mice; settings: IFNγ 2,000 IU, 3 times a week for 6 weeks
Method: (§4) Animals were purchased from Jackson Laboratories (Bar Harbor, Me., USA). 8-week-old virgin female C57BL/6 mice (Charles River Laboratories, Quebec, Canada) were used to study the effect of exogenous administration of IFN-γ on bone and gut expression of IDO-1 and TPH-1. Bilateral ovariectomies (OVX) were performed under general anesthesia. Another group of animals was sham-operated (SHAM), in which ovaries were exteriorized but replaced intact. Two weeks after surgery, mice (OVX and SHAM) received intraperitoneal injections of 2000 IU of IFN-γ (R&D Systems, Inc., Minneapolis, Minn., USA) or vehicle (PBS) three times weekly for a total of 6 weeks. Mice were housed in cages in a limited-access room. Animal husbandry adhered to Canadian Council on Animal Care Standards, and all protocols were approved by the McGill University Health Center Animal Care Utilization Committee. […]
(§5) For immunohistochemistry, gut and bone sections were incubated overnight at 4° C. with a goat polyclonal antibody IgG against either IDO-1 or TPH-1 (Santacruz Biotechnology Inc. Santa Cruz Calif., USA), Primary antibody was detected by incubation with an anti-goat IgG secondary antibody conjugated with horseradish peroxidase (1:300 in BSA 1%, Sigma-Aldrich, St. Louis, Mo., USA)]. […] Photographs were taken under an Olympus fluorescence microscope controlled by an IPLab system. […]

TPH-1 = experiment: Immunohistochemistry of TPH-1 in gut and bone of IFNγ-treated mice; type: in vivo, C57BL/6 mice; settings: IFNγ 2,000 IU, 3 times a week for 6 weeks
Method: as §4, §5

gut derived serotonin = experiment: Gut derived serotonin (GDS) in gut of IFNγ-treated mice; type: in vivo, C57BL/6 mice; settings: IFNγ 2,000 IU, 3 times a week for 6 weeks
Method: Animals were purchased from Jackson Laboratories (Bar Harbor, Me., USA). 8-week-old virgin female C57BL/6 mice (Charles River Laboratories, Quebec, Canada) were used to study the effect of exogenous administration of IFN-γ on bone and gut expression of IDO-1 and TPH-1. Bilateral ovariectomies (OVX) were performed under general anesthesia. Another group of animals was sham-operated (SHAM), in which ovaries were exteriorized but replaced intact. Two weeks after surgery, mice (OVX and SHAM) received intraperitoneal injections of 2000 IU of IFN-γ (R&D Systems, Inc., Minneapolis, Minn., USA) or vehicle (PBS) three times weekly for a total of 6 weeks. Mice were housed in cages in a limited-access room. Animal husbandry adhered to Canadian Council on Animal Care Standards, and all protocols were approved by the McGill University Health Center Animal Care Utilization Committee.
One side femur and proximal gut from each animal in each group was removed at the time of euthanization. Bone was fixed in 70% ethanol, dehydrated, and embedded undecalcified in methyl methacrylate (J-T Baker, Phillipsburg, N.J., USA). At 50-μm intervals, longitudinal sections 5- and 8-μm thick were cut using a Polycut-E microtome (Reichert-Jung Leica, Heerbrugg, Switzerland). Gut was fixed and embedded in paraffin for future analysis. Gut sections were obtained as described above.

[8] = test system: gut-derived serotonin (GDS); settings: Yadav et al. (2010); cited from earlier work
[9] = 1000 nM quinolinic acid, 14 days, vs untreated cells

Molecule: Nc1ccccc1C(=O)CC(N)C(=O)O [L-kynurenine, 2-amino-4-(2-aminophenyl)-4-oxo-butanoic acid, reference compound]
- relative gene expression of RUNX2, OCN and OPN (RUNX2, OCN and OPN): not

Molecule: O=C(O)c1cccnc1C(=O)O [QA, 2,3-Pyridinedicarboxylic acid]
- osteoblastogenesis / mineralisation (alizarin red) ([1]; MSC in OIM, 2 weeks): accelerated mineralisation; also recorded: stimulate osteoblastogenesis
- relative expression (RE) RUNX2 (RUNX2, OCN and OPN; [9]): 3 fold
- relative expression (RE) osteopontin (RUNX2, OCN and OPN; [9]): 6 fold
- relative gene expression of RUNX2, OCN and OPN (RUNX2, OCN and OPN): increased
- mineralisation (alizarin red staining) [2]: higher levels of mineralisation

Molecule: CC[C@H](C)[C@H](NC(=O)[C@H](CCC(=O)O)NC(=O)[C@H](CO)NC(=O)[C@@H](NC(=O)[C@@H](N)CO)C(C)C)C(=O)N[C@@H](CCC(N)=O)C(=O)N[C@@H](CC(C)C)C(=O)N[C@@H](CCSC)C(=O)N[C@@H](Cc1cnc[nH]1)C(=O)N[C@@H](CC(N)=O)C(=O)N[C@@H](CC(C)C)C(=O)NCC(=O)N[C@@H](CCCCN)C(=O)N[C@@H](Cc1cnc[nH]1)C(=O)N[C@@H](CC(C)C)C(=O)N[C@@H](CC(N)=O)C(=O)N[C@@H](CO)C(=O)N[C@@H](CCSC)C(=O)N[C@@H](CCC(=O)O)C(=O)N[C@@H](CCCN=C(N)N)C(=O)N[C@H](C(=O)N[C@@H](CCC(=O)O)C(=O)N[C@@H](Cc1c[nH]c2ccccc12)C(=O)N[C@@H](CC(C)C)C(=O)N[C@@H](CCCN=C(N)N)C(=O)N[C@@H](CCCCN)C(=O)N[C@@H](CCCCN)C(=O)N[C@@H](CC(C)C)C(=O)N[C@@H](CCC(N)=O)C(=O)N[C@@H](CC(=O)O)C(=O)N[C@H](C(=O)N[C@@H](Cc1cnc[nH]1)C(=O)N[C@@H](CC(N)=O)C(=O)N[C@@H](Cc1ccccc1)C(=O)O)C(C)C)C(C)C [teriparatide]
- tumour growth [3]: cause malignant tumour growth (osteogenic carcinoma)

Molecule: IFNγ: interferon gamma, stimulator of IDO-1
- IDO-1 gene expression (IDO-1 gene expression [4]; IFNγ 100 nM, differentiating MSC in osteogenic media 7 days, vs untreated MSC and immune cells): 12 fold
- increase in IDO-1 expression (IDO-1 gene expression [4]; 14th day): 13 fold
- increase in IDO-1 expression (IDO-1 gene expression [4]; after 7 days): 36 fold
- TPH-1 gene expression (TPH-1 gene expression): high levels
- IDO-1 gene expression (IDO-1 gene expression [5]): without affecting
- mineralization (alizarin red staining) ([1]; IFNγ 100 ng/ml, one week of osteogenic differentiation, vs vehicle): higher levels of mineralization
- kynurenine/tryptophan ratio (tryptophan degradation) (IDO-1 [6]): higher kynurenine/tryptophan ratio
- serotonin concentrations in the supernatants (serotonin): No changes
- levels of IDO-1 in gut and bone marrow (IDO-1 [7]): higher levels of IDO-1
- expression of TPH-1 in gut and bone (TPH-1): remains unaltered
- GDS in the gut (gut derived serotonin): remains unaltered

Molecule: Nc1nc(OC(c2ccc(-c3cccc(F)c3)cc2)C(F)(F)F)cc(-c2ccc(C[C@H](N)C(=O)O)cc2)n1 (stereo partly shown) [LP533401]
- bone formation / osteoporosis in OVX mice [8]: stimulates bone formation and recues OVX mice from osteoporosis

Molecule: CN[C@H](Cc1c[nH]c2ccccc12)C(=O)O [methyl-D-tryptophan, reference compound]
- RE of IDO-1 (IDO-1 gene expression [4]; day 14 of differentiation, in the presence of inhibitor, vs control): 0.02
- mineralization measured by alizarin red ([1]; inhibition of IDO-1): significant decrease
- osteogenic genes expression (RUNX2, OCN and OPN; with IDO-1 inhibition): reduced
